Test results: patent publication US6683103B2, “Sulfonamides for treatment of endothelin-mediated disorders” (Texas Biotechnology Corporation, priority 1997, dated 2004)

What was measured:
[1] = Stability of solutions, percent remaining by HPLC; format: physicochemical
[2] = Solubility in aqueous media

- percent remaining (HPLC) ([1]; 0.49 mg/mL, 1.5% PVP + 3.0% PG, 24 h): 90.0%
- percent remaining (HPLC) ([1]; 0.51 mg/mL, 5% dextrose, 24 h): 99.4%
- percent remaining (HPLC) ([1]; 0.51 mg/mL, normal saline, 24 h): 96.9%
- percent remaining (HPLC) ([1]; 0.57 mg/mL, 0.75% PVP + 1.5% PG, 24 h): 74.4%
- percent remaining (HPLC) ([1]; 20 mg/mL, 5% dextrose + 5% PG + citrate buffer, 0.3% w/v (pH 7.5), 26 h (4° C.)): 97.2%
- percent remaining (HPLC) ([1]; 20 mg/mL, 5% dextrose + 5% buffer (pH 7.0), 24 h): 92.6%
- percent remaining (HPLC) ([1]; 20 mg/mL, 5% dextrose + K-phosphate buffer, 2.5% w/v (pH 6), 24 h): 84.6%
- percent remaining (HPLC) ([1]; 20 mg/mL, 5% dextrose + K-phosphate buffer, 2.5% w/v (pH 7), 20 h): 92.6%
- percent remaining (HPLC) ([1]; 20 mg/mL, 5% dextrose + K-phosphate buffer, 2.5% w/v (pH 7.5), 24 h): 93.4%
- percent remaining (HPLC) ([1]; 20 mg/mL, 5% dextrose + citrate buffer, 0.3% w/v (pH 7.5), 27 h (4° C.)): 96.6%
- percent remaining (HPLC) ([1]; 20 mg/mL, 5% dextrose + citrate buffer, 0.3% w/v (pH 8), 21 h): 92.9%
- percent remaining (HPLC) ([1]; 20 mg/mL, 5% dextrose, 24 h (13° C.)): 93.7%
- percent remaining (HPLC) ([1]; 20 mg/mL, 5% dextrose, 25 h (10° C.)): 93.7%
- percent remaining (HPLC) ([1]; 20 mg/mL, 10% dextrose + 10% PG + Na-phosphate buffer, 0.3% w/v (pH 7.5), 24 h): 90.7%
- percent remaining (HPLC) ([1]; 20 mg/mL, 10% dextrose, 24 h): 93.4%
- percent remaining (HPLC) ([1]; 30 mg/mL, 5% dextrose, 24 h): 92.2%
- percent remaining (HPLC) ([1]; 30 mg/mL, 10% dextrose + 10% PG + citrate buffer, 0.3% w/v (pH 7.5), 24 h (4° C.)): 98.0%
- percent remaining (HPLC) ([1]; 30 mg/mL, 20% sorbitol, 24 h): 93.2%
- percent remaining (HPLC) ([1]; 100 mg/mL, 5% dextrose, 6 h): 93.0%
- percent remaining (HPLC) ([1]; 100 mg/mL, 10% dextrose +10% PG + citrate buffer, 0.3% w/v (pH 7.5), 24 h): 94.2%
- percent remaining (HPLC) ([1]; 100 mg/mL, 30% sorbitol, 24 h): 93.2%
- percent remaining (HPLC) ([1]; mg/mL not given, 10% dextrose + 10% PG + Na-phosphate buffer, 0.3% w/v (pH 7.5), 24 h (4° C.)): 97.4%
- percent remaining (HPLC) ([1]; mg/mL not given, 10% dextrose + 10% PG + Na-phosphate buffer, 0.3% w/v (pH 8), 24 h (4° C.)): 96.4%
- percent remaining (HPLC) ([1]; mg/mL not given, 10% dextrose + 10% PG + citrate buffer, 0.3% w/v (pH 7.4), 24 h (4° C.)): 97.6%
- percent remaining (HPLC) ([1]; mg/mL not given, 10% dextrose + 10% PG, 24 h (4° C.)): 97.6%
SMILES: Cc1cc2c(cc1CC(=O)c1sccc1S(=O)(=O)Nc1onc(C)c1Cl)OCO2.[Na] [sodium]
- stability compared to the sodium hydrogen phosphate salt ([1]; certain aqueous formulations): as stable as the sodium hydrogen phosphate salt
- solubility compared to the neutral compound [2]: improved solubility over the neutral compound
